# Patent publication US7868135B2, “Compositions of lipopeptide antibiotic derivatives and methods of use thereof” (priority 2003, dated 2011)
# Starred links: 1 amine or outer side, 2 acyl side, 3 side chain; linkers in the order of their positions; H or OH if unused. Positions of bridges follow the written chain, without caps; N, C: chain ends. Non-standard residues stand in square brackets, D forms with d. Residues, ends and D or L forms follow the SMILES beside them. Groups on a side chain read outwards from the residue. ξ: configuration not given here. *: point of attachment. X33 = CCCCCCCCCCCC(=O)Nc1cc(NC(=O)CCCCCCCCCCC)cc(C(=O)*)c1; Adamantane1carbonyl = O=C(C12CC3CC(CC(C3)C1)C2)*; X34 = CCCCCC(=O)Nc1cc(NC(=O)CCCCC)cc(C(=O)*)c1; X29 = COCCOCCOCC(=O)NC(C)C(N[*:1])C(=O)[*:2]; X3 = CC(NC(=O)[C@H](N)CN)C(N[*:1])C(=O)[*:2]; ξAbu(βξ-NH2) = CC(N[*:3])C(N[*:1])C(=O)[*:2]; Benzoyl(3-OPh) = O=C(c1cccc(Oc2ccccc2)c1)*; Benzoyl(4-tBu) = CC(C)(C)c1ccc(C(=O)*)cc1; NH(2-CF3-phenyl) = FC(F)(F)c1ccccc1N*; Pentadecanoyl = CCCCCCCCCCCCCCC(=O)*; ξAsp(βξ-Me) = CC(C(=O)O)C(N)C(=O)O; X13 = O=C(CCCCCCCCCCOc1ccccc1)*; ξAbu(3ξ-NH2) = CC(N)C(N)C(=O)O; Undecanoyl = CCCCCCCCCCC(=O)*; X9 = O=C(c1ccccc1Cc1ccccc1)*; Pip = O=C(O)[CH]1CCCCN1; ξD = NC(CC(=O)O)C(=O)O; ξPip = O=C(O)C1CCCCN1; CO = O=C([*:1])[*:2]; ξV = CC(C)C(N)C(=O)O; ξP = O=C(O)C1CCCN1
# Test system: Staphylococcus aureus (MSSA)
# Conditions: 24 h
# How it was run: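 Broth microdilution MIC per NCCLS M7-A6 with doubling serial dilutions, in cation-adjusted Mueller-Hinton broth supplemented with 0.625 mM calcium.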
row,Structure (SMILES),MIC [µg/mL]
1,"CCCCCCCCCCC(=O)N[C@@H](CC(=O)OC)C(=O)NC(CC(=O)O)C(=O)NC1C(=O)N2CCCCC2C(=O)NC(C(C)C(=O)O)C(=O)NC(CC(=O)O)C(=O)NCC(=O)NC(CC(=O)O)C(=O)NCC(=O)NC(C(C)N)C(=O)NC(C(C)C)C(=O)N2CCCC2C(=O)NC1C (stereo partly drawn) [Compound 316, C11-(Asp-(OMe))-Amphomycin] (Undecanoyl-D(OMe)[ξD][ξAbu(βξ-NH2)][ξPip][ξAsp(βξ-Me)][ξD]G[ξD]G[ξAbu(3ξ-NH2)][ξV][ξP]; lactam 3-C)",>64
2,"CCCCCCCCCCCCCCC(=O)N[C@H](CC(=O)OC)C(=O)NC(CC(=O)O)C(=O)NC1C(=O)N2CCCCC2C(=O)NC(C(C)C(=O)O)C(=O)NC(CC(=O)O)C(=O)NCC(=O)NC(CC(=O)O)C(=O)NCC(=O)NC(C(C)N)C(=O)NC(C(C)C)C(=O)N2CCCC2C(=O)NC1C (stereo partly drawn) [Compound 317, C15-(Asp-(Ome))-Amphomycin] (Pentadecanoyl-[dD](OMe)[ξD][ξAbu(βξ-NH2)][ξPip][ξAsp(βξ-Me)][ξD]G[ξD]G[ξAbu(3ξ-NH2)][ξV][ξP]; lactam 3-C)",1
3,"CCCCCCCCCCCCCCC(=O)NC(CC(=O)O)C(=O)NC1C(=O)N2CCCCC2C(=O)NC(C(C)C(=O)O)C(=O)NC(CC(=O)O)C(=O)NCC(=O)NC(CC(=O)O)C(=O)NCC(=O)NC(C(C)NC(=O)Nc2ccccc2C(F)(F)F)C(=O)NC(C(C)C)C(=O)N2CCCC2C(=O)NC1C (stereo not drawn) [Compound 318, C15-Amphomycin-9-C(═O)—NH—(O—CF3-Phenyl)] (Pentadecanoyl-D[ξAbu(βξ-NH2)][Pip][ξAsp(βξ-Me)]DGDG[ξAbu(βξ-NH2)]([CO-NH(2-CF3-phenyl)])VP; lactam 2-C; configuration not given here)",64
4,"CCCCCC(=O)Nc1cc(NC(=O)CCCCC)cc(C(=O)NC(CC(=O)O)C(=O)NC2C(=O)N3CCCCC3C(=O)NC(C(C)C(=O)O)C(=O)NC(CC(=O)O)C(=O)NCC(=O)NC(CC(=O)O)C(=O)NCC(=O)NC(C(C)N)C(=O)NC(C(C)C)C(=O)N3CCCC3C(=O)NC2C)c1 (stereo not drawn) [Compound 319, N,N′-di-C6-(M,M-Diaminobenzoyl)-Amphomycin] (X34-D[ξAbu(βξ-NH2)][Pip][ξAsp(βξ-Me)]DGDG[ξAbu(3ξ-NH2)]VP; lactam 2-C; configuration not given here)",64
5,"CCCCCCCCCCCC(=O)Nc1cc(NC(=O)CCCCCCCCCCC)cc(C(=O)NC(CC(=O)O)C(=O)NC2C(=O)N3CCCCC3C(=O)NC(C(C)C(=O)O)C(=O)NC(CC(=O)O)C(=O)NCC(=O)NC(CC(=O)O)C(=O)NCC(=O)NC(C(C)N)C(=O)NC(C(C)C)C(=O)N3CCCC3C(=O)NC2C)c1 (stereo not drawn) [Compound 320, N,N′-di-C12-(M,M-Diaminobenzoyl)-Amphomycin] (X33-D[ξAbu(βξ-NH2)][Pip][ξAsp(βξ-Me)]DGDG[ξAbu(3ξ-NH2)]VP; lactam 2-C; configuration not given here)",2
6,"CCCCCCCCNC(=O)NCCC(=O)NC(CC(=O)O)C(=O)NC1C(=O)N2CCCCC2C(=O)NC(C(C)C(=O)O)C(=O)NC(CC(=O)O)C(=O)NCC(=O)NC(CC(=O)O)C(=O)NCC(=O)NC(C(C)N)C(=O)NC(C(C)C)C(=O)N2CCCC2C(=O)NC1C (stereo not drawn) [Compound 321, CH3—(CH2)7—NH—C(═O)-(β-Ala)-Amphomycin]",>64
7,"CC(C)C1NC(=O)C(C(C)N)NC(=O)CNC(=O)C(CC(=O)O)NC(=O)CNC(=O)C(CC(=O)O)NC(=O)C(C(C)C(=O)O)NC(=O)C2CCCCN2C(=O)C(NC(=O)C(CC(=O)O)NC(=O)c2ccccc2Cc2ccccc2)C(C)NC(=O)C2CCCN2C1=O (stereo not drawn) [Compound 323, (2-(Phenylmethyl)-Benzoyl)-Amphomycin] (X9-D[ξAbu(βξ-NH2)][Pip][ξAsp(βξ-Me)]DGDG[ξAbu(3ξ-NH2)]VP; lactam 2-C; configuration not given here)",>64
8,"CC(C)C1NC(=O)C(C(C)N)NC(=O)CNC(=O)C(CC(=O)O)NC(=O)CNC(=O)C(CC(=O)O)NC(=O)C(C(C)C(=O)O)NC(=O)C2CCCCN2C(=O)C(NC(=O)C(CC(=O)O)NC(=O)c2ccc(C(C)(C)C)cc2)C(C)NC(=O)C2CCCN2C1=O (stereo not drawn) [Compound 326, (4-Tbutylbenzoyl)-Amphomycin] ({Benzoyl(4-tBu)}-D[ξAbu(βξ-NH2)][Pip][ξAsp(βξ-Me)]DGDG[ξAbu(3ξ-NH2)]VP; lactam 2-C; configuration not given here)",>64
9,"CC(C)C1NC(=O)C(C(C)N)NC(=O)CNC(=O)C(CC(=O)O)NC(=O)CNC(=O)C(CC(=O)O)NC(=O)C(C(C)C(=O)O)NC(=O)C2CCCCN2C(=O)C(NC(=O)C(CC(=O)O)NC(=O)c2cccc(Oc3ccccc3)c2)C(C)NC(=O)C2CCCN2C1=O (stereo not drawn) [Compound 327, (3-(Phenoxy)-Benzoyl)-Amphomycin] ({Benzoyl(3-OPh)}-D[ξAbu(βξ-NH2)][Pip][ξAsp(βξ-Me)]DGDG[ξAbu(3ξ-NH2)]VP; lactam 2-C; configuration not given here)",>64
10,"CCCCCCCCCCCCCCC(=O)NC(CC(=O)O)C(=O)NC1C(=O)N2CCCCC2C(=O)NC(C(C)C(=O)O)C(=O)NC(CC(=O)O)C(=O)NCC(=O)NC(CC(=O)O)C(=O)NCC(=O)NC(C(C)NC(=O)[C@H](N)CN)C(=O)NC(C(C)C)C(=O)N2CCCC2C(=O)NC1C (stereo partly drawn) [Compound 328, C15-Amphomycin-9-(D-Dap)] (Pentadecanoyl-[ξD][ξAbu(βξ-NH2)][ξPip][ξAsp(βξ-Me)][ξD]G[ξD]G[X3][ξV][ξP]; lactam 2-C)",2
11,"CCCCCCCCCCCCCCC(=O)NC(C)C1NC(=O)CNC(=O)C(CC(=O)O)NC(=O)CNC(=O)C(CC(=O)O)NC(=O)C(C(C)C(=O)O)NC(=O)C2CCCCN2C(=O)C(NC(=O)C(CC(=O)O)NC(=O)CNC(=O)[C@@H](N)CCCCN)C(C)NC(=O)C2CCCN2C(=O)C(C(C)C)NC1=O (stereo partly drawn) [Compound 331, Lys-Gly-Amphomycin-9-C15] (H-KG[ξD][ξAbu(βξ-NH2)][ξPip][ξAsp(βξ-Me)][ξD]G[ξD]G[ξAbu(βξ-NH2)](Pentadecanoyl)[ξV][ξP]; lactam 4-C)",>64
12,"CC(C)C1NC(=O)C(C(C)N)NC(=O)CNC(=O)C(CC(=O)O)NC(=O)CNC(=O)C(CC(=O)O)NC(=O)C(C(C)C(=O)O)NC(=O)C2CCCCN2C(=O)C(NC(=O)C(CC(=O)O)NC(=O)CCCCCCCCCCOc2ccccc2)C(C)NC(=O)C2CCCN2C1=O (stereo not drawn) [Compound 333, (11-(Phenoxy)Undecanoyl)-Amphomycin] (X13-D[ξAbu(βξ-NH2)][Pip][ξAsp(βξ-Me)]DGDG[ξAbu(3ξ-NH2)]VP; lactam 2-C; configuration not given here)",1
13,CC(C)C1NC(=O)C(C(C)N)NC(=O)CNC(=O)C(CC(=O)O)NC(=O)CNC(=O)C(CC(=O)O)NC(=O)C(C(C)C(=O)O)NC(=O)C2CCCCN2C(=O)C(NC(=O)C(CC(=O)O)NC(=O)C23CC4CC(CC(C4)C2)C3)C(C)NC(=O)C2CCCN2C1=O (stereo not drawn) [Compound 336] (Adamantane1carbonyl-D[ξAbu(βξ-NH2)][Pip][ξAsp(βξ-Me)]DGDG[ξAbu(3ξ-NH2)]VP; lactam 2-C; configuration not given here),>64
14,"CCCCCCCCCCCCOc1cccc2ccc(C(=O)NC(CC(=O)O)C(=O)NC3C(=O)N4CCCCC4C(=O)NC(C(C)C(=O)O)C(=O)NC(CC(=O)O)C(=O)NCC(=O)NC(CC(=O)O)C(=O)NCC(=O)NC(C(C)N)C(=O)NC(C(C)C)C(=O)N4CCCC4C(=O)NC3C)nc12 (stereo not drawn) [Compound 339, (8-Dodecyloxy-Quinoline-2-Carbonyl)-Amphomycin]",0.5
15,"CCCCCCCCCCCCCCC(=O)NC(CC(=O)O)C(=O)NC1C(=O)N2CCCCC2C(=O)NC(C(C)C(=O)O)C(=O)NC(CC(=O)O)C(=O)NCC(=O)NC(CC(=O)O)C(=O)NCC(=O)NC(C(C)NC(=O)[C@@H](N)Cc2ccccc2)C(=O)NC(C(C)C)C(=O)N2CCCC2C(=O)NC1C (stereo partly drawn) [Compound 341, C15-Amphomycin-9-Phe]",>64
16,"CCCCCCCCCCCCCCC(=O)NC(CC(=O)O)C(=O)NC1C(=O)N2CCCCC2C(=O)NC(C(C)C(=O)O)C(=O)NC(CC(=O)O)C(=O)NCC(=O)NC(CC(=O)O)C(=O)NCC(=O)NC(C(C)NC(=O)CCCCCCCCCCCCCC)C(=O)NC(C(C)C)C(=O)N2CCCC2C(=O)NC1C (stereo not drawn) [Compound 342, C15-Amphomycin-9-C15]",>64
17,"CCCCCCCCCCCCCCC(=O)NC(CC(=O)O)C(=O)NC1C(=O)N2CCCCC2C(=O)NC(C(C)C(=O)O)C(=O)NC(CC(=O)O)C(=O)NCC(=O)NC(CC(=O)O)C(=O)NCC(=O)NC(C(C)NC(=O)COCCOCCOC)C(=O)NC(C(C)C)C(=O)N2CCCC2C(=O)NC1C (stereo not drawn) [Compound 343, C15-Amphomycin-9-([2-(2-Methoxy-Ethoxy)-Ethoxy]-Acetyl)] (Pentadecanoyl-D[ξAbu(βξ-NH2)][Pip][ξAsp(βξ-Me)]DGDG[X29]VP; lactam 2-C; configuration not given here)",64
18,"CCCCCCCCCC(=O)N(C)CC(=O)NC(CC(=O)O)C(=O)NC1C(=O)N2CCCCC2C(=O)NC(C(C)C(=O)O)C(=O)NC(CC(=O)O)C(=O)NCC(=O)NC(CC(=O)O)C(=O)NCC(=O)NC(C(C)N)C(=O)NC(C(C)C)C(=O)N2CCCC2C(=O)NC1C (stereo not drawn) [Compound 344, C10-Sar-Amphomycin]",>64
19,"CCCCCCCCCCCCCC(=O)N(C)CC(=O)NC(CC(=O)O)C(=O)NC1C(=O)N2CCCCC2C(=O)NC(C(C)C(=O)O)C(=O)NC(CC(=O)O)C(=O)NCC(=O)NC(CC(=O)O)C(=O)NCC(=O)NC(C(C)N)C(=O)NC(C(C)C)C(=O)N2CCCC2C(=O)NC1C (stereo not drawn) [Compound 345, C14-Sar-Amphomycin]",64
20,"CCCCCCCC(=O)N(C)CC(=O)NC(CC(=O)O)C(=O)NC1C(=O)N2CCCCC2C(=O)NC(C(C)C(=O)O)C(=O)NC(CC(=O)O)C(=O)NCC(=O)NC(CC(=O)O)C(=O)NCC(=O)NC(C(C)N)C(=O)NC(C(C)C)C(=O)N2CCCC2C(=O)NC1C (stereo not drawn) [Compound 346, C8-Sar-Amphomycin]",>64
21,"CCCCCCCCCCCCCCC(=O)NC(CC(=O)O)C(=O)NC1C(=O)N2CCCCC2C(=O)NC(C(C)C(=O)O)C(=O)NC(CC(=O)O)C(=O)NCC(=O)NC(CC(=O)O)C(=O)NCC(=O)NC(C(C)NC(=O)CCCCCCCCCCC)C(=O)NC(C(C)C)C(=O)N2CCCC2C(=O)NC1C (stereo not drawn) [Compound 347, C15-Amphomycin-9-C12]",>64
